Columns and labels:
[1] = biological target: T1, recombinant activated p38alpha (Homo sapiens, UniProt Q16539); assay: in vitro kinase assay p38 (ADP-Glo); format: biochemical; conditions: 100 μM ATP; for inhibition at 1 µM: 1 μM compound; for inhibition at 10 µM: 10 μM compound
T1 construct: purchased ProQinase
Method: (§1) Purified recombinant activated p38alpha (10 nM)(ProQinase) was preincubated 10 minutes at 30° C. with the compound of interest at concentrations between 1 and 100 μM in duplicate in a final volume of 30 μl of kinase buffer (Hepes 60 mM pH 7.5, MgCl2 3 mM, MnCl2 3 mM, sodium orthovanadate 3 μM, DTT 1.2 mM). After preincubation, peptide substrate (SignalChem #P03-58) and ATP were added to a final concentration of 10 μM and 100 μM respectively, and then incubated 40 minutes at 30° C. for the kinase reaction. Phosphorylation was analysed with ADP-Glo™ (Promega #V9101) and emitted luminescence was measured with BMG Fluostar microplate reader.

[2] = system: TNF-α secretion by a human monocytic cell line, THP-1; assay: Inhibition of TNF-α secretion by LPS-stimulated THP-1 cells (ELISA); format: cell-based; conditions: LPS-stimulated THP-1, TNF-α; for inhibition at 1 µM: 1 μM compound, read-out: % of inhibition at 1 μM, THP1; for inhibition at 10 µM: 10 μM compound, read-out: % of inhibition at 10 μM, THP1
Method: Thp1-Inhibition of TNF-α Secretion by a Human Monocytic Cell Line, THP-1
THP-1 cells, growing in log phase, were collected by centrifugation and resuspended in RPMI 1640 (Sigma Aldrich), to a final cell concentration of 2×10^6 cells/ml. Cells were plated into 24-well plates (BD Biosciences). Dilutions of compounds in dimethyl sulfoxide (DMSO) were added to the culture to a final concentration M. The final DMSO concentration was 0.5%. The cells […] suspensions were preincubated with compounds for 1 h at 37° C. in a 5% CO2 humidified atmosphere before the addition of LPS (Sigma Aldrich, L2654) to a g/ml. After that, cells were incubated for 3 h followed final concentration of […] by centrifugation to pellet cells. Cell supernatants were stored at 4° C. until human analysis for TNF-α content. TNF-α levels were determined by ELISA (TNF Biotrak, GE Healthcare) following the manufacturer's directions. The percentage inhibition was calculated for each compound concentration tested, and the IC50 was calculated for each compound.

[3] = system: recombinant activated JNK; assay: in vitro kinase assay JNK (ADP-Glo); format: biochemical; conditions: 100 μM ATP; for % of inhibition at 1 μM, JNK: 1 μM compound; for % of inhibition at 10 μM, JNK: 10 μM compound
Method: as §1, with “JNK” for “p38alpha”, “nM) (ProQinase)” for “nM)(ProQinase)”, “analyzed” for “analysed”

T1 sequence (Q16539 whole entry): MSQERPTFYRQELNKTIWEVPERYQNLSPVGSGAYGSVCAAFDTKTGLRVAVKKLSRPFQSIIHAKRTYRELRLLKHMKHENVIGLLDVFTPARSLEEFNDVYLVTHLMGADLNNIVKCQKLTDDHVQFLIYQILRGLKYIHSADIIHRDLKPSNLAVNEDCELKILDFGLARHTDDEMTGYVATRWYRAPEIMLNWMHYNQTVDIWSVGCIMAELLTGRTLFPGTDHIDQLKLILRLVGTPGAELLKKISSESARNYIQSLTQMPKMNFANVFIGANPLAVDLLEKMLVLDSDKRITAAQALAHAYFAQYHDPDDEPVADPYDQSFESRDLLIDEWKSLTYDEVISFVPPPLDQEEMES

SMILES	inhibition at 1 µM [1]	inhibition at 10 µM [1]	inhibition at 1 µM [2]	inhibition at 10 µM [2]	% of inhibition at 1 μM, JNK [3]	% of inhibition at 10 μM, JNK [3]
CCOc1ccc(Nc2nc3nonc3nc2N2CCC(Oc3ccc(Cl)cc3)CC2)cc1 [Comp 2]	41%	87%	42%	69%	36%	91%
CCCOc1cccc(Nc2nc3nonc3nc2N2CCC(Oc3ccc(Cl)cc3)CC2)c1 [Comp 3]	23%	100%	37%	58%	31%	96%
CCOc1cccc(Nc2nc3nonc3nc2N2CCC(Oc3ccc(Cl)cc3)CC2)c1 [Comp 4]	25%	68%	19%	41%	31%	74%
CCCOc1ccc(Nc2nc3nonc3nc2N2CCC(Sc3ccc(C)cc3)CC2)cc1 [Comp 5]	41%	100%	44%	65%	37%	97%
CCOc1ccc(Nc2nc3nonc3nc2N2CCC(Sc3ccc(C)cc3)CC2)cc1 [Comp 6]	32%	95%	28%	39%	35%	91%
CCCOc1cccc(Nc2nc3nonc3nc2N2CCC(Sc3ccc(C)cc3)CC2)c1 [Comp 7]	19%	87%	21%	33%	34%	101%
CCOc1cccc(Nc2nc3nonc3nc2N2CCC(Sc3ccc(C)cc3)CC2)c1 [Comp 8]	16%	64%	17%	37%	32%	55%
CCCOc1ccc(Nc2nc3nonc3nc2N2CCN(Cc3ccc(Cl)cc3)CC2)cc1 [Comp 9]	23%	68%	27%	39%	26%	51%
CCOc1ccc(Nc2nc3nonc3nc2N2CCN(Cc3ccc(Cl)cc3)CC2)cc1 [Comp 10]	25%	52%	19%	31%	30%	50%
Clc1ccc(OC2CCN(c3nc4nonc4nc3Nc3ccc4c(c3)CCO4)CC2)cc1 [Comp 11]	21%	105%	30%	50%	24%	74%
Clc1ccc(OC2CCN(c3nc4nonc4nc3Nc3ccc4occc4c3)CC2)cc1 [Comp 12]	15%	95%	45%	51%	24%	90%

Source: patent publication US9908896B2, “P38 and JNK MAPK inhibitors for the treatment and prophylaxis of degenerative diseases of the nervous system” (ALLINKY BIOPHARMA, priority 2014, dated 2018)
